# Data as given in US7056734B1, “Differentiation of non-insulin producing cells into insulin producing cells by GLP-1 or exendin-4 and uses thereof” (The United States of America as represented by the …, priority 1998, dated 2006).
# Columns and labels:
# Wistar rats [1] = assay: Acute intravenous GLP-1 bolus, plasma insulin response in young and old rats; type: in vivo, rat; conditions: 0.2 nmol/kg iv bolus; for maximal insulin response: 2 min after completion of the bolus
# Description: Protocols. To insure that old animals were capable of responding to GLP-1, we carried out an acute experiment with an intravenous bolus of GLP-1. Six old (22 months) and 6 young (3 months) Wistar rats were fasted overnight. Following anesthesia with 50 mg/kg pentobarbital, a catheter was placed in the femoral artery for blood sampling, and a bolus of GLP-1 (0.2 nmol/kg) was given into the saphenous vein over 30 sec. Blood (taken at 2, 4, 7, and 10 min) was collected for insulin determination.
# Wistar rats [2] = conditions: De Ore et al., 1997; cited from earlier work
# AR42J cells = assay: Protein tyrosine phosphorylation in AR42J cells; type: cell-based, rat; conditions: 5 min treatment
# Description: Tyrosine Phosphorylation Studies. […] Then the medium was removed and fresh KRBB was added, followed by placing the cell on a 37° C. hot plate for 5 min. After addition of various reagents (see FIG. 24) for 5 min the reaction was terminated by submersion of the dishes in liquid nitrogen. The frozen cells were scraped and lysed in RIPA buffer. […] The blots were developed using the ECL chemiluminescence detection system (Amersham).
smiles,measurement,setting,value
CC[C@H](C)[C@H](NC(=O)[C@H](Cc1ccccc1)NC(=O)[C@H](CCC(=O)O)NC(=O)[C@H](CCCCN)NC(=O)[C@H](C)NC(=O)[C@H](C)NC(=O)[C@H](CCC(N)=O)NC(=O)CNC(=O)[C@H](CCC(=O)O)NC(=O)[C@H](CC(C)C)NC(=O)[C@H](Cc1ccc(O)cc1)NC(=O)[C@H](CO)NC(=O)[C@H](CO)NC(=O)[C@@H](NC(=O)[C@H](CC(=O)O)NC(=O)[C@H](CO)NC(=O)[C@@H](NC(=O)[C@H](Cc1ccccc1)NC(=O)[C@@H](NC(=O)CNC(=O)[C@H](CCC(=O)O)NC(=O)[C@H](C)NC(=O)[C@@H](N)Cc1c[nH]cn1)[C@@H](C)O)[C@@H](C)O)C(C)C)C(=O)N[C@@H](C)C(=O)N[C@@H](Cc1c[nH]c2ccccc12)C(=O)N[C@@H](CC(C)C)C(=O)N[C@H](C(=O)N[C@@H](CCCCN)C(=O)NCC(=O)N[C@@H](CCCNC(=N)N)C(N)=O)C(C)C [GLP-1],maximal insulin response,Wistar rats [1]; old (22 month) fasted rats,347.7 ± 25.7 pmol/L
same,maximal insulin response,Wistar rats [1]; young (3 month) fasted rats,373.3±43.7 pmol/1
same,time at which insulin levels had returned to baseline,Wistar rats [1]; young and old rats,10 min
same,dose giving maximal insulin response,Wistar rats [2],0.4 nmol/kg
same,effect on protein tyrosine phosphorylation,AR42J cells,did not have any effect
